# According to the supplement of paper PMC10307832:
# Key:
# Assay in all cases: relative viability (nuclei count vs DMSO), 5 days (fraction); higher = more cells survive
# [1] = compound: N#CC1(c2ccc(NC(=O)c3cccnc3NCc3ccncc3)cc2)CCCC1 [Apatinib] + Cc1nc(NC(=O)N2CCC[C@H]2C(N)=O)sc1-c1ccnc(C(C)(C)C(F)(F)F)c1 [Alpelisib] (partner 2 µM)
# How it was run: (§1)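 Medians of duplicate plates are given as relative viability. That measure is the nuclei count in treated wells divided by the count in vehicle wells. Counts were taken on 4× images of lung cancer cell lines in 1536-well plates, 5 days after pin-tool dosing the day after seeding with one drug alone or a fixed anchor-drug dose plus five library-drug doses (not always all listed) in √10 steps.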
# [2] = compound: CN(C)C(=N)NC(=N)N [Metformin] + Nc1ncn([C@H]2C[C@H](O)[C@@H](CO)O2)c(=O)n1 [Decitabine] (partner 2 µM)
# How it was run: as §1
# [3] = compound: CN(C)C(=N)NC(=N)N [Metformin] + O=C(CCCCCCC(=O)Nc1ccccc1)NO [Vorinostat] (partner 1 µM)
# How it was run: as §1
# [4] = compound: N#CC1(c2ccc(NC(=O)c3cccnc3NCc3ccncc3)cc2)CCCC1 [Apatinib] + CS(=O)(=O)CCNCc1ccc(-c2ccc3ncnc(Nc4ccc(OCc5cccc(F)c5)c(Cl)c4)c3c2)o1 [Lapatinib] (partner 2 µM)
# How it was run: as §1
Cell Line,relative viability ([1]; first compound 0.08 µM),relative viability ([1]; first compound 0.253 µM),relative viability ([1]; first compound 0.8 µM),relative viability ([1]; first compound 2.53 µM),relative viability ([1]; first compound 8 µM),relative viability ([2]; first compound 10 µM),relative viability ([2]; first compound 31.62 µM),relative viability ([2]; first compound 100 µM),relative viability ([2]; first compound 316.23 µM),relative viability ([2]; first compound 1000 µM),relative viability ([3]; first compound 10 µM),relative viability ([3]; first compound 31.62 µM),relative viability ([3]; first compound 100 µM),relative viability ([3]; first compound 316.23 µM),relative viability ([3]; first compound 1000 µM),relative viability ([4]; first compound 0.08 µM),relative viability ([4]; first compound 0.253 µM),relative viability ([4]; first compound 0.8 µM),relative viability ([4]; first compound 2.53 µM),relative viability ([4]; first compound 8 µM)
UMC-11,1.05,0.834,0.848,0.959,0.885,0.573,0.743,0.741,0.49,0.437,0.471,0.452,0.483,0.377,0.406,1.15,0.917,0.83,0.972,0.901
NCI-H2347,0.943,1.02,1,1.02,0.944,0.532,0.597,0.605,0.573,0.578,0.602,0.619,0.71,0.575,0.599,0.926,0.992,1.02,0.964,0.957
LU99A,0.565,0.618,0.457,0.49,0.461,0.798,0.765,0.723,0.735,0.849,0.417,0.579,0.411,0.397,0.479,1.02,1.07,0.969,0.821,0.954
NCI-H3122,0.781,0.796,0.822,0.761,0.714,0.343,0.371,0.361,0.359,0.369,0.459,0.942,0.87,0.807,0.775,1.03,1.02,1.01,0.989,1.01
SW 1573,0.829,0.917,0.757,0.761,0.595,0.508,0.637,0.44,0.431,0.421,0.724,0.722,0.68,0.701,0.755,0.958,1.09,1.15,1.09,1.02
HARA,1.07,0.837,0.852,0.735,0.795,0.722,0.498,0.581,0.621,0.68,0.419,0.587,0.39,0.382,0.445,0.755,0.895,0.674,0.731,0.623
NCI-H1793,0.576,0.727,0.471,0.481,0.593,0.503,0.439,0.458,0.449,0.621,0.943,0.832,0.727,0.662,1.02,0.553,0.616,0.736,0.544,0.604
NCI-H727,0.64,0.625,0.53,0.512,0.506,0.789,0.897,0.89,,1.1,1.1,1.16,1.13,,1.13,0.707,0.879,0.9,0.727,0.825
201T,1.01,1.08,1.03,1.09,1.05,,0.824,0.805,0.799,0.776,,1.02,0.972,0.98,1.03,1.07,0.976,0.983,0.975,1.01
NCI-H838,1.06,1.03,0.935,0.958,0.942,0.478,0.465,0.482,0.396,0.459,0.645,0.586,0.675,0.569,0.654,1.29,1.13,0.998,0.965,0.891
NCI-H1734,0.739,0.774,0.701,0.591,0.595,0.502,0.425,0.435,0.442,0.499,0.753,0.907,0.81,0.78,0.914,1.14,1.13,1.06,0.871,0.909
ABC-1,,1.2,1.1,1.01,1.1,,1.12,1.2,1.54,0.548,,0.953,1.1,1.08,0.332,1.03,1.45,1.42,1.14,0.993
NCI-H1915,1.08,1.09,1.04,0.916,0.81,,0.263,0.255,0.245,0.269,,0.499,0.498,0.46,0.517,1.04,0.94,0.892,0.802,0.935
BEN,1.04,0.92,0.983,0.862,0.727,0.768,0.777,0.646,0.661,0.752,0.56,0.728,0.64,0.494,0.625,0.604,0.67,0.764,0.578,0.591
NCI-H1355,0.884,0.823,0.816,0.804,0.67,0.402,0.285,0.332,0.355,0.372,0.597,0.522,0.632,0.589,0.609,1.06,0.963,0.973,0.923,0.944
NCI-H1975,0.662,0.691,0.508,0.562,0.576,0.334,0.402,0.65,0.323,0.394,0.688,0.738,0.705,0.645,0.729,0.929,1.15,0.835,0.738,0.904
HCC-44,0.854,0.784,0.745,0.766,0.726,,0.934,0.927,0.959,0.966,,1.02,1.09,1.06,1.03,1.04,0.993,0.991,0.945,0.941
NCI-H2087,1.19,1.07,1.03,0.904,0.666,0.251,0.231,0.294,0.294,0.3,0.595,0.657,0.637,0.567,0.671,0.877,0.982,1.09,0.793,0.891
